Measurements as given in patent US9821072B2, “Activated neurotensin molecules and the uses thereof” (priority 2014, dated 2017).

What was measured:
Assay type in all cases: in vivo, mouse
[1] = tested on: NMRI mice with yeast-induced hyperthermia; experiment: Antipyretic effect in yeast-induced hyperthermia in NMRI mice
Method: In addition to eliciting a strong hypothermic effect when injected intravenously in naïve mice, we assessed the antipyretic effect of activated NT drugs of the invention in mice with yeast-induced hyperthermia. Briefly, rectal temperature of male NMRI mice was first measured 14 hours before the test using a rectal probe (Baseline 1, two independent measurements at a minimum of 5 min interval). Mice were then injected subcutaneously with either a yeast suspension (512 mg/kg), to induce a hyperthermic response, or hydroxypropylmethylcellulose (HPMC) in saline 0.9%. Fourteen hours later, rectal temperature of the mice was measured again (Baseline 2, two independent measurements at a minimum of 5 min interval) in order to assess the effect of yeast or HPMC injection on baseline temperature.

[2] = tested on: mice; experiment: Writhing test (acetic acid, acute visceral pain) in mice; details: 30 min before acetic acid i.p.
Method: In order to evaluate the antinociceptive potential of activated NT drugs, compound XIV was tested in an experimental pain model in mice. The writhing test was used as a model of acute visceral pain to assess the effect of compound XIV after intravenous administration. Given that the time to maximal decrease in body temperature in mice receiving compound XIV was around 45 min post-injection, we assumed similar pharmacodynamic kinetics in this pain model. Mice first received intravenous (bolus) injection of compound XIV at increasing dose levels, followed 30 min thereafter by intraperitoneal injection of acetic acid 0.7% (10 mL/kg). In control mice, intraperitoneal injection of acetic acid produces characteristic and quantifiable abdominal stretches (elongation of the body and extension of forelimbs) as early as 2-3 minutes following injection and reaching a peak between 5 and 15 min following injection. This time window was therefore used to evaluate the number of abdominal stretches (writhes counted over 10 min observation) in mice administered with either saline or compound XIV at 0.5, 1 or 5 mg/kg eq. NT.

[3] = tested on: FVB/N mice with KA-induced status epilepticus; experiment: Kainic acid-induced status epilepticus model (body temperature, seizures, neurodegeneration, neuroinflammation, mossy fiber sprouting)
Source text: In the present case, excitotoxicity was induced by subcutaneous (s.c.) injection of kainic acid (KA), a pro-convulsant agent known to induce a status epilepticus (SE) with excitotoxicity, neuroinflammation, and severe neuronal damage in the hippocampus that can be observed 3 to 7 days after KA administration, and with aberrant axonal sprouting of the dentate gyrus mossy fibers that can be observed at 7-8 weeks after KA administration. We tested the effect of compound XIV on i) epileptic activity (persistence of recurrent seizures), ii) neurodegeneration, neuroinflammation and the resulting brain tissue damage and iii) aberrant axonal sprouting of the dentate gyrus mossy fibers.
FVB/N adult male mice were injected with a single dose of KA (40-45 mg/kg s.c.) to generate mice with spontaneous recurrent seizures as a hallmark of SE. A negative control group of mice were administered saline 0.9% instead of KA and no further treatment (“SHAM”, n=5). Thirty minutes after the onset of SE, mice received either an intravenous (tail vein) bolus injection of compound XIV at the dose of 4 mg/kg eq. NT (treatment group “SE+HT”, n=5) or saline 0.9% (group “SE”, n=5), or a high dose of diazepam (DZP) at 15 mg/kg), a potent anti-convulsive and anti-epileptic drug (positive control group “SE+DZP”). Body temperature was monitored before KA injection and then every 15 min during 6 hours thereafter, using a rectal probe. During this period, mice were assessed for the occurrence and severity of motor seizures. One week later, animals were sacrificed for histological assessment of neuronal cell death on coronal sections, the hippocampal formation being the main structure in the brain showing tissue damage in this model of excitotoxicity. Another group of animals with the same treatments was sacrificed 8 weeks for histological assessment of aberrant axonal sprouting of the dentate gyrus mossy fibers.
Administration of KA (40-45 mg/kg; s.c.) caused characteristic sequential behavioral changes. Immediately after being injected, all animals developed immobility (stage 1). Within 30 minutes after KA injection, automatisms with head nodding, forelimb clonus and circling behavior (stages 2-3) were observed. Then most animals progressed to intermittent (stage 4) followed by continuous (stage 5) rearing with forelimb clonus and falling behavior. […] Only animals attaining at least Racine stage 5 seizures were included in the study. The SE occurred around 2 hours after KA injection, was characterized by stage 5-6 seizures and often associated with hyperthermia (FIG. 13A). Compound XIV administered 30 min after SE onset (SE30) invariably led to transient hypothermia (FIG. 13A), which persisted at least 2 hrs. Mean decreases in body temperature (BT) of −2.5° C. and −3.6° C. were respectively recorded for SE30+ compound XIV animals as compared to SE animals (F=52.34; ***P<0.001). […] SE30+ compound XIV animals presented an average of stage 2 seizures or fewer during the rest of experiment. A subset of animals was administered i.p. a high dose of diazepam (DZP). […] Thus, administration of compound XIV at the dose of 4 mg/kg eq. […] This effect correlated with a −3 to −6° C. decrease in body temperature during ˜2.5 hours.
Using the anti-NeuN antibody and Fluoro-jade C that respectively label a neuronspecific nuclear protein and neuronal death, we observed a broad loss of CA1 and CA3 pyramidal cells as well as some dentate hilar neurons in the hippocampus of control SE animals (FIG. 14A, panel B), as compared to SHAM animals (FIG. 14A, panel A).
SE-induced gliosis involved microglia and astroglial cell types. We used GFAP and Iba1 immunolabeling to estimate the effect of compound XIV on neuroinflammation. In SHAM animals, a basal labeling for GFAP and Iba1 was detected in the HF (FIG. 14A, panel D). In SE animals, a very strong activation of glial cells occurred in all hippocampal layers (FIG. 14, panels E, H). […]

[4] = tested on: FVB/N mice with KA-induced status epilepticus; experiment: as above; details: 30 min after SE onset; first of two values, presumably 2 mg/kg eq. NT
[5] = administered 30 min after SE onset

CCC(=O)N[C@@H]1CSSC[C@@H](C(=O)NCCOCCOCCOCCOCCOCCOCCC(=O)N[C@@H](CCCNC(=N)N)C(=O)N[C@@H](CCCNC(=N)N)C(=O)N2CCC[C@H]2C(=O)N[C@@H](Cc2ccc(O)cc2)C(=O)N[C@H](C(=O)N[C@@H](CC(C)C)C(=O)O)[C@@H](C)CC)NC(=O)CN(C)C(=O)[C@H](CCCNC(=N)N)NC(=O)[C@H](CC(C)C)NC(=O)[C@H](CCCNC(=N)N)NC(=O)[C@@H]2CCCCN2C(=O)[C@H](CCSC)NC1=O [Compound XIV, Pr-cMPipRLRSarC-PEG6-RRPYIL-OH]
further decrease of body temperature ([1]; 6 mg/kg eq. NT i.v.): 4.7 °C | maximal antipyretic effect compared to Baseline 2 or saline ([1]; as of 2 mg/kg eq. NT i.v., 15 min post-injection): −2.2 °C | antinociceptive effect on writhe count ([2]; 0.5 mg/kg eq. NT i.v.): no effect | reduction of the writhe count ([2]; 1 mg/kg eq. NT i.v.): 50% | reduction of the writhe count ([2]; 5 mg/kg eq. NT i.v.): 64% | decrease in body temperature ([3]; 4 mg/kg eq. NT i.v., during ~2.5 hours): −3 to −6 °C | mean decrease in body temperature compared to SE animals (second value) ([3]; 30 min after SE onset, second of two values, presumably 4 mg/kg eq. NT): −3.6 °C | glial inflammatory response in the hippocampus (GFAP, Iba1) compared with SE animals [3, 5]: significantly decreased | persistence of transient hypothermia [3, 5]: at least 2 hrs | seizure intensity compared with SE group [3, 5]: significant decrease of seizures | seizure stage (Racine) during the rest of the experiment [3, 5]: ≤ 2 stage | number of mossy fiber terminals innervating the IML (ZnT3) compared with SE animals ([3]; administered 30 min after SE onset, 8 weeks after SE): considerably reduced | neurodegeneration in the hippocampus (NeuN, Fluoro-jade C) compared with SE animals ([3]; administered 30 min after SE onset, one week later): significantly decreased | mean decrease in body temperature compared to SE animals (first value) [4]: −2.5 °C
